From patent publication US10689377B2 (Mirati Therapeutics, Inc., priority 2017, dated 2020)

Experiments:
KRas G12C = KRas G12C (Homo sapiens, UniProt P01116, G12C); test: Cellular inhibition of KRas G12C measured by Phospho-ERK in NCI-H358 cells; assay type: cell-based; conditions: pERK(Thr202/Tyr204) normalized with GAPDH, NCI-H358 cells, 3 hours; read-out: IC50
Procedure, shortened: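 Following 8-12 h attachment, NCI-H358 cells got serially diluted compound (0.5% DMSO) for 3 hours. Cells were then fixed, permeabilized with cold methanol, and stained for pERK(Thr202/Tyr204) and GAPDH. Ratios were converted to percent of DMSO control, with IC50 obtained by four-parameter regression.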

[1] = In vitro stability in human whole blood; assay type: in vitro ADME; conditions: male, whole blood diluted to 50% with PBS, pH 7.4, human whole blood diluted to 50% with PBS, 5 μM, 37° C., 240-minute incubation, read-out: Compound Half-life
Text: Materials: The following reagents were used as received: acetonitrile (HPLC grade, Burdick & Jackson, Madison, Wis.), phosphate buffered saline (PBS), pH 7.4 (Sigma-Aldrich, Co., St. Louis, Mo.), water (HPLC grade, JT Baker, Phillipsburg, N.J.), DMSO (EM Science, Merck KGaA, Darmstadt, Germany) and isopropanol (IPA, reagent grade, EMD Chemicals, Gibbstown, N.J.). Propantheline and esmolol (Sigma-Aldrich) were used as the positive control compounds in the assay. Diazepam (Sigma-Aldrich) was used as an internal standard for quantitation. Human whole blood was obtained from BioIVT (Westbury, N.Y.) […]. All other reagents and solvents were of the highest analytical grade supplied by Sigma (St. Louis, Mo.) and were used as received.
Blood Incubations: The in vitro stability of representative KRas G12C inhibitor compounds of the present invention in the presence whole blood was conducted in the following manner. Esmolol or propantheline, which are known to undergo ester hydrolysis by esterases in blood and plasma, were used as the positive controls in the assays. A 10 mM stock solution of propantheline, esmolol, or a compound of the present invention in DMSO was diluted to 500 μM with DMSO. Aliquots of whole blood (600 μL), in triplicate, were placed in the appropriate wells of a polypropylene 96-deep well plate (Axygen Scientific, Union City, Calif.). The blood was diluted to 50% using PBS, pH 7.4 (600 μL). The diluted blood was pre-incubated for 15 minutes at 37° C. Each well was dosed with 12 μL of the 500 μM DMSO stock simultaneously for a final test concentration of 5 μM. The plates were mixed at 600 rpm for 10 seconds on a plate shaker (IKA MTS 2/4 Digital Microtiter Shaker, VWR). Aliquots of 100 μL from each well of whole blood were transferred to three separate 96-deep well plates labeled 0, 60, or 240 minutes. At the end of each designated time point, the red blood cells were lysed with 100 μL of water, mixed at 600 rpm for one minute, and stopped with 800 μL of acetonitrile containing IS (0.625 μM diazepam). The plates were mixed on the plate shaker at 600 rpm for one minute and spun in a centrifuge at 2095×g for 7 minutes at room temperature using an Allegra benchtop centrifuge (Beckman Coulter, Fullerton, Calif.). Supernatant (100 μL) was transferred to a shallow 96-well plate (Costar) using a liquid sample handling system (Apricot, Perkin-Elmer, Boston, Mass.). The addition of 100 μL of water was added to each sample of supernatant for a final volume of 200 μL. The plates were sealed and the contents of each well were analyzed by LC-MS/MS.
Analytical quantitation: The LC-MS/MS system was comprised of an HTS-PAL autosampler (Leap Technologies, Carrboro, N.C.), an HP1200 HPLC (Agilent, Palo Alto, Calif.), and an API4000 triple quadrupole mass spectrometer (PE Sciex, a division of Applied Biosystems, Foster City, Calif.). […] The total run time, including re-equilibration, for a single injection was 2 minutes. Mass spectrometric detection of the analytes was accomplished using the ESI ionization mode. Ion current was optimized during infusion of a stock solution of propantheline, esmolol, or the representative test compound. Analyte responses, including the IS were measured by multiple reaction monitoring (MRM) of transitions unique to each compound.
Calculations: Data were acquired and peak areas were calculated for test compounds and the internal standard using Analyst 1.6.2 software (Sciex). The mean peak area ratios were calculated by averaging the peak area ratios (n=3) of each test compound and the IS for each sample.
Peak area tables were exported to BioAssay Enterprise (CambridgeSoft, Cambridge, Mass.), where the average analyte-to-internal standard peak area ratios were used to calculate percent remaining (% REM) and half-life (t1/2). Percent remaining (f) was calculated by determining the ratio of the peak area ratio at each time point to the peak area ratio of the time-zero samples. […]

Sequence of KRas G12C (P01116 1-188 isoform P01116-2 G12C): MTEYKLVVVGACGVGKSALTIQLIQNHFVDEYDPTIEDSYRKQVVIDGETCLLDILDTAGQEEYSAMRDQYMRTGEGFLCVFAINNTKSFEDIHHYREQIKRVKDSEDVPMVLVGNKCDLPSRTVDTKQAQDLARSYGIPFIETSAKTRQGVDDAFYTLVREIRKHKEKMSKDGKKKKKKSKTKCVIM

Structure (SMILES) | IC50 (KRas G12C) [nM] | half-life at 5 µM [1] [min]
C=C(F)C(=O)N1CCN(c2nc(OC[C@H]3CCCN3C)nc3c2CCN(c2cccc4cccc(C)c24)C3)C[C@@H]1CC#N [Example 516, 2-((S)-1-(2-fluoroacryloyl)-4-(7-(8-methylnaphthalen-1-yl)-2-(((R)-1-methylpyrrolidin-2-yl)methoxy)-5,6,7,8-tetrahydropyrido[3,4-d]pyrimidin-4-yl)piperazin-2-yl)acetonitrile] | 0.1 to 1000 | > 2000
Cc1cccc2cccc(N3CCc4c(nc(OC[C@H]5CCCN5C)nc4N4CCN(C(=O)/C=C/CO)[C@@H](CC#N)C4)C3)c12 [Example 517, 2-((S)-1-((E)-4-hydroxybut-2-enoyl)-4-(7-(8-methylnaphthalen-1-yl)-2-(((R)-1-methylpyrrolidin-2-yl)methoxy)-5,6,7,8-tetrahydropyrido[3,4-d]pyrimidin-4-yl)piperazin-2-yl)acetonitrile] | 0.1 to 1000 | 1000 to 2000
COC/C=C/C(=O)N1CCN(c2nc(OC[C@@H]3CCCN3C)nc3c2CCN(c2cccc4cccc(Cl)c24)C3)C[C@@H]1CC#N [Example 524, 2-((S)-4-(7-(8-chloronaphthalen-1-yl)-2-(((S)-1-methylpyrrolidin-2-yl)methoxy)-5,6,7,8-tetrahydropyrido[3,4-d]pyrimidin-4-yl)-1-((E)-4-methoxybut-2-enoyl)piperazin-2-yl)acetonitrile] | 0.1 to 1000 | > 2000
Cc1cccc2cccc(N3CCc4c(nc(OC[C@H]5CCCN5C)nc4N4CCN(C(=O)/C=C/CF)[C@@H](CC#N)C4)C3)c12 [Example 579, 2-[(2S)-1-[(E)-4-Fluorobut-2-enoyl]-4-[7-(8-methyl-1-naphthyl)-2-[[(2R)-1-methylpyrrolidin-2-yl]methoxy]-6,8-dihydro-5H-pyrido[3,4-d]pyrimidin-4-yl]piperazin-2-yl]acetonitrile] | 0.1 to 1000 | 1000 to 2000
